US20230165788A1, “MULTI-DRUG FORMULATIONS FOR SUBCUTANEOUS BIODEGRADABLE RESERVOIR DEVICE” (Research Triangle Institute, priority 2020, published 2023)
Values belong to the compound of their own block, whether it stands above or below them.

Key:
HIV = assay: Evaluation of Elvitegravir for use in the device: potency
Excerpt: (§1) The active agent formulation includes more than one active agent and an excipient. One or more of the more than one active agent can be one or a combination of a therapeutic, a preventative, a prophylactic and/or a contraceptive. […] Not all active agents are amenable for use in the described device. Active agents having sufficient aqueous solubility and stability and dosing requirements and that are amenable to size parameters of the device are suitable for use in the described device. Moreover, in embodiments, the active agents retain a high level of purity that is both safe and efficacious to the user throughout the intended dosage duration and are not susceptible to immediate degradation caused by environmental contents (e.g., body fluids, physiological temperature). In additional embodiments, the solubility of active agents within potential excipients can range from 0.1-50 mg/mL.

[1] = Evaluation of Elvitegravir for use in the device: solubility and dose; type: physicochemical
Excerpt: as §1

[2] = beagle dogs, cited from earlier work
[3] = non-polymeric refillable implant, rhesus macaques; cited from earlier work

solubility [1]: relatively low solubility
Compound: COc1cc2c(cc1Cc1cccc(Cl)c1F)c(=O)c(C(=O)O)cn2[C@H](CO)C(C)C [Elvitegravir]
potency (HIV): suboptimal potency

Compound: CC(C)OC(=O)[C@H](C)N[P@](=O)(CO[C@H](C)Cn1cnc2c(N)ncnc21)Oc1ccccc1 [TAF, tenofovir alafenamide]
duration of drug delivery ([2]; subdermal silicone implant with PVA-coated channels): 40 days
adverse events ([2]; subdermal silicone implant): without observed adverse events
period of sustained levels of tenofovir diphosphate (TFV-DP) in PBMCs [3]: 83 days

Compound: Nc1nc(=O)n([C@@H]2CS[C@H](CO)O2)cc1F [FTC, emtricitabine]
period of sustained levels of FTC-triphosphate (FTC-TP) [3]: 28 days
